# According to ChEMBL document CHEMBL4507320, “Data for DCP probe NVS-MALT1” (2021):
# Key:
# [1] = target: Myosin-IIIa (Homo sapiens) (UniProt Q8NEV4); conditions: Compound concentration 1000.0 nM
# [2] = target: Serine/threonine-protein kinase WNK4 (Homo sapiens) (UniProt Q96J92); conditions: Compound concentration 1000.0 nM
# [3] = target: Serine/threonine-protein kinase N2 (Homo sapiens) (UniProt Q16513); conditions: Compound concentration 1000.0 nM
# [4] = target: Tyrosine-protein kinase Fyn (Homo sapiens) (UniProt P06241); conditions: Compound concentration 1000.0 nM
# [5] = target: Cyclin-dependent kinase 14 (Homo sapiens) (UniProt O94921); conditions: Compound concentration 1000.0 nM
# [6] = target: Microtubule-associated serine/threonine-protein kinase 1 (Homo sapiens) (UniProt Q9Y2H9); conditions: Compound concentration 1000.0 nM
# [7] = target: BMP-2-inducible protein kinase (Homo sapiens) (UniProt Q9NSY1); conditions: Compound concentration 1000.0 nM
# [8] = target: Dual specificity protein kinase CLK1 (Homo sapiens) (UniProt P49759); conditions: Compound concentration 1000.0 nM
# [9] = target: Serine/threonine-protein kinase PLK2 (Homo sapiens) (UniProt Q9NYY3); conditions: Compound concentration 1000.0 nM
# [10] = target: Casein kinase II subunit alpha' (Homo sapiens) (UniProt P19784); conditions: Compound concentration 1000.0 nM
# [11] = target: Calcium/calmodulin-dependent protein kinase type IV (Homo sapiens) (UniProt Q16566); conditions: Compound concentration 1000.0 nM
# [12] = target: Cyclin-dependent kinase-like 1 (Homo sapiens) (UniProt Q00532); conditions: Compound concentration 1000.0 nM
# [13] = target: Macrophage-stimulating protein receptor (Homo sapiens) (UniProt Q04912); conditions: Compound concentration 1000.0 nM
# [14] = target: Phosphatidylinositol 3-kinase catalytic subunit type 3 (Homo sapiens) (UniProt Q8NEB9); conditions: Compound concentration 1000.0 nM
# [15] = target: Mitogen-activated protein kinase kinase kinase kinase 1 (Homo sapiens) (UniProt Q92918); conditions: Compound concentration 1000.0 nM
# [16] = target: Cyclin-dependent kinase 9 (Homo sapiens) (UniProt P50750); conditions: Compound concentration 1000.0 nM
# [17] = target: MAP kinase-activated protein kinase 5 (Homo sapiens) (UniProt Q8IW41); conditions: Compound concentration 1000.0 nM
# [18] = test system: Fibroblast growth factor receptor 3 (Homo sapiens), P22607 [G697C]; conditions: Compound concentration 1000.0 nM
# [19] = target: Mitogen-activated protein kinase kinase kinase 7 (Homo sapiens) (UniProt O43318); conditions: Compound concentration 1000.0 nM
# [20] = test system: Phosphatidylinositol 4,5-bisphosphate 3-kinase catalytic subunit alpha isoform (Homo sapiens), P42336 [E545A]; conditions: Compound concentration 1000.0 nM
# [21] = target: Dual specificity protein kinase CLK3 (Homo sapiens) (UniProt P49761); conditions: Compound concentration 1000.0 nM
# [22] = target: Mitogen-activated protein kinase kinase kinase 19 (Homo sapiens) (UniProt Q56UN5); conditions: Compound concentration 1000.0 nM
# [23] = target: Cyclin-dependent kinase 2 homolog (Plasmodium falciparum (isolate 3D7)) (UniProt P61075); conditions: Compound concentration 1000.0 nM
# [24] = target: RAC-gamma serine/threonine-protein kinase (Homo sapiens) (UniProt Q9Y243); conditions: Compound concentration 1000.0 nM
# [25] = target: TGF-beta receptor type-1 (Homo sapiens) (UniProt P36897); conditions: Compound concentration 1000.0 nM
# [26] = target: Phosphatidylinositol 3-kinase C2 domain-containing subunit gamma (Homo sapiens) (UniProt O75747); conditions: Compound concentration 1000.0 nM
# [27] = target: Serine/threonine-protein kinase 38-like (Homo sapiens) (UniProt Q9Y2H1); conditions: Compound concentration 1000.0 nM
# [28] = target: Transient receptor potential cation channel subfamily M member 6 (Homo sapiens) (UniProt Q9BX84); conditions: Compound concentration 1000.0 nM
# [29] = target: Beta-adrenergic receptor kinase 1 (Homo sapiens) (UniProt P25098); conditions: Compound concentration 1000.0 nM
# [30] = target: Cyclin-dependent kinase 4 (Homo sapiens) (UniProt P11802); conditions: Compound concentration 1000.0 nM
# [31] = target: Mitogen-activated protein kinase kinase kinase 12 (Homo sapiens) (UniProt Q12852); conditions: Compound concentration 1000.0 nM
# [32] = target: Cyclin-dependent kinase-like 3 (Homo sapiens) (UniProt Q8IVW4); conditions: Compound concentration 1000.0 nM
# [33] = target: cGMP-dependent protein kinase 1 (Homo sapiens) (UniProt Q13976); conditions: Compound concentration 1000.0 nM
# [34] = target: Beta-3 adrenergic receptor (Homo sapiens) (UniProt P13945); conditions: Compound concentration 10.0 uM
# [35] = target: Serine/threonine-protein kinase SIK3 (Homo sapiens) (UniProt Q9Y2K2); conditions: Compound concentration 1000.0 nM
# [36] = target: Tyrosine-protein kinase ABL2 (Homo sapiens) (UniProt P42684); conditions: Compound concentration 1000.0 nM
# [37] = target: Interleukin-1 receptor-associated kinase 3 (Homo sapiens) (UniProt Q9Y616); conditions: Compound concentration 1000.0 nM
# [38] = target: Serine/threonine-protein kinase 25 (Homo sapiens) (UniProt O00506); conditions: Compound concentration 1000.0 nM
# [39] = target: Mitogen-activated protein kinase kinase kinase kinase 2 (Homo sapiens) (UniProt Q12851); conditions: Compound concentration 1000.0 nM
# [40] = target: G protein-coupled receptor kinase 3 (Homo sapiens) (UniProt P35626); conditions: Compound concentration 1000.0 nM
# [41] = target: 5-hydroxytryptamine receptor 2A (Homo sapiens) (UniProt P28223); conditions: Compound concentration 10.0 uM
# [42] = test system: Tyrosine-protein kinase ABL1 (Homo sapiens), P00519 [Q252H]; conditions: Compound concentration 1000.0 nM
# [43] = test system: Phosphatidylinositol 4,5-bisphosphate 3-kinase catalytic subunit alpha isoform (Homo sapiens), P42336 [Q546K]; conditions: Compound concentration 1000.0 nM
# [44] = test system: Hepatocyte growth factor receptor (Homo sapiens), P08581 [Y1235D]; conditions: Compound concentration 1000.0 nM
# [45] = target: Dual specificity mitogen-activated protein kinase kinase 1 (Homo sapiens) (UniProt Q02750); conditions: Compound concentration 1000.0 nM
# Phosphatidylinositol 3-kinase C2 domain-containing subunit gamma (Homo sapiens), sequence (O75747 whole entry, the tested form may be a part): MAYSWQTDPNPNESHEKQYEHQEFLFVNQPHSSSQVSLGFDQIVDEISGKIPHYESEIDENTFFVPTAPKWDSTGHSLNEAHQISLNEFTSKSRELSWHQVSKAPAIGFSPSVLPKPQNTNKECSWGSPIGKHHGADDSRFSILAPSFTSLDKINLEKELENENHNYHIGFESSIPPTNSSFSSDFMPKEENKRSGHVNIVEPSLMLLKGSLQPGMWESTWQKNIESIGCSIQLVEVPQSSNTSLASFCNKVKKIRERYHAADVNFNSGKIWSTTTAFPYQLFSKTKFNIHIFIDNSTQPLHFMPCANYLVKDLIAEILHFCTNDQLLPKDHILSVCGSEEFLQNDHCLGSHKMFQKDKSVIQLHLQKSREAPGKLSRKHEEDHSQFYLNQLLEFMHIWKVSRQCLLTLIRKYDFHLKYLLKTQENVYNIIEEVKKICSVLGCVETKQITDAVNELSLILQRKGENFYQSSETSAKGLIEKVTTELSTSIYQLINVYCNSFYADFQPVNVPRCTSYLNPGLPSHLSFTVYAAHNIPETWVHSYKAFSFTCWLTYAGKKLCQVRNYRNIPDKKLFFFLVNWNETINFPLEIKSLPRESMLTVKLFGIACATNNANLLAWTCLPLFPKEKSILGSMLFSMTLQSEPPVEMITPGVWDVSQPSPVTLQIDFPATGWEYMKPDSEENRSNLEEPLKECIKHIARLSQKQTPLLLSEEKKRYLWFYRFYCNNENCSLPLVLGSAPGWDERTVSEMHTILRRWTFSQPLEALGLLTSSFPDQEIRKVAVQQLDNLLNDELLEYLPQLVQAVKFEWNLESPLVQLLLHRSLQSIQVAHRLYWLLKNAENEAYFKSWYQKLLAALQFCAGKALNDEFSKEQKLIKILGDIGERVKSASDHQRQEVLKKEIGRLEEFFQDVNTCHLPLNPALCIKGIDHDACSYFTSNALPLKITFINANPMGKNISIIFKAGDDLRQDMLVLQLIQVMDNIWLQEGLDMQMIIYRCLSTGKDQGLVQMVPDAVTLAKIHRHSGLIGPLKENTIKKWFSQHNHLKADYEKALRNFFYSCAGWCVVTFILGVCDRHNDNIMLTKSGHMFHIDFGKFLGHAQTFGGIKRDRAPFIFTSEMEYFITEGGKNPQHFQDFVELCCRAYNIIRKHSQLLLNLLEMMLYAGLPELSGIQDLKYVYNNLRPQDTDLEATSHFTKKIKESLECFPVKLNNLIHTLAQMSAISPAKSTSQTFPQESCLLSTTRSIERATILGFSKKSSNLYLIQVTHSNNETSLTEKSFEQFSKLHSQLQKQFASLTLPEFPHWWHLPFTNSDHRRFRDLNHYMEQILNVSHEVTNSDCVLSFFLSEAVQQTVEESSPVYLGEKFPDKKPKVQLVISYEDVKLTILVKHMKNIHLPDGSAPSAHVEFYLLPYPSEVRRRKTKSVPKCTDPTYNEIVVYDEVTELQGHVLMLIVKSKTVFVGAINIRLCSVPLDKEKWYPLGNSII
# Mitogen-activated protein kinase kinase kinase 12 (Homo sapiens), sequence (Q12852 whole entry): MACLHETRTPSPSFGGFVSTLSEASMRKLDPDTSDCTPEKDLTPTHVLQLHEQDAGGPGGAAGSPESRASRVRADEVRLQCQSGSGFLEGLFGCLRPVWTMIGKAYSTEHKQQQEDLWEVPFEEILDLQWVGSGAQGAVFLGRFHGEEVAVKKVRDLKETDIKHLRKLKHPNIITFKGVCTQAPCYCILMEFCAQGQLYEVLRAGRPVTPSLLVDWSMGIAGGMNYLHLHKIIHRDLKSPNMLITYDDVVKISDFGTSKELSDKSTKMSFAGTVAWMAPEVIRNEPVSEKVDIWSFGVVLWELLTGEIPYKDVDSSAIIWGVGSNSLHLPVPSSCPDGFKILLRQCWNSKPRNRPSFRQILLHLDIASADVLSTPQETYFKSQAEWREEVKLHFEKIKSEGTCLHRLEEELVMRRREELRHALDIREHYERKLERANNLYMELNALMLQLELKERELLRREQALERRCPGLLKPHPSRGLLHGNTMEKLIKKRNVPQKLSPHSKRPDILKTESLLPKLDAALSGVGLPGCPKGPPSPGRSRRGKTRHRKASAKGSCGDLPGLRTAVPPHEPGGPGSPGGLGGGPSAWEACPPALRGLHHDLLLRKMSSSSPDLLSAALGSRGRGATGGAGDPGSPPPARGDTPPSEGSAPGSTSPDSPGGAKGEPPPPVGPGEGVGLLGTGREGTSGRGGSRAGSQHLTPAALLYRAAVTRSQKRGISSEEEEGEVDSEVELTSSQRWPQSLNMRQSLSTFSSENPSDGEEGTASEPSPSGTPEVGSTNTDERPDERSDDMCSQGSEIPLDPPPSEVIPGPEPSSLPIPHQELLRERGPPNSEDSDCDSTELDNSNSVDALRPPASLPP
# Beta-3 adrenergic receptor (Homo sapiens), sequence (P13945 whole entry, looked up): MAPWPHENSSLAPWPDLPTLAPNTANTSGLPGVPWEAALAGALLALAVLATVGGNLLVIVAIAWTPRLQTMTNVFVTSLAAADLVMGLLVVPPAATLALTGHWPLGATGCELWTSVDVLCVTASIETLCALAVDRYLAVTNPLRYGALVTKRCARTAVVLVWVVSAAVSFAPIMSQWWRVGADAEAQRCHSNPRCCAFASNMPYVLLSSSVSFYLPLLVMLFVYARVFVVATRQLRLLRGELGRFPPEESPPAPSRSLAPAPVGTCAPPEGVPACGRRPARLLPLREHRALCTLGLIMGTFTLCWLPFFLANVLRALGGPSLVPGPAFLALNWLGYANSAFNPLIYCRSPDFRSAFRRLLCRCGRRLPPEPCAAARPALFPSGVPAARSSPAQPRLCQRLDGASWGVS
# 5-hydroxytryptamine receptor 2A (Homo sapiens), sequence (P28223 whole entry): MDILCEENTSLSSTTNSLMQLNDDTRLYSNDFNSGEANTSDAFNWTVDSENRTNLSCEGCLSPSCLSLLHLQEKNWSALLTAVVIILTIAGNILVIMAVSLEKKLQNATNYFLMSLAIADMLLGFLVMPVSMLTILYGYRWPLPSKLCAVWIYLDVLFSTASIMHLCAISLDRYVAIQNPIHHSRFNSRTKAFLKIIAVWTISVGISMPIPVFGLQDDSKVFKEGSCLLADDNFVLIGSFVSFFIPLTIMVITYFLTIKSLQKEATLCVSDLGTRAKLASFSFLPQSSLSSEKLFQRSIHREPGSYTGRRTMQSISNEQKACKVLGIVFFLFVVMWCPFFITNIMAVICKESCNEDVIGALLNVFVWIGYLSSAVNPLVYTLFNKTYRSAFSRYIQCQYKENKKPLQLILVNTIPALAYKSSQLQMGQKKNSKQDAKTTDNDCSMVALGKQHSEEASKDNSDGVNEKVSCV
# Phosphatidylinositol 4,5-bisphosphate 3-kinase catalytic subunit alpha isoform (Homo sapiens), P42336 [E545A], sequence (P42336 whole entry E545A, canonical isoform): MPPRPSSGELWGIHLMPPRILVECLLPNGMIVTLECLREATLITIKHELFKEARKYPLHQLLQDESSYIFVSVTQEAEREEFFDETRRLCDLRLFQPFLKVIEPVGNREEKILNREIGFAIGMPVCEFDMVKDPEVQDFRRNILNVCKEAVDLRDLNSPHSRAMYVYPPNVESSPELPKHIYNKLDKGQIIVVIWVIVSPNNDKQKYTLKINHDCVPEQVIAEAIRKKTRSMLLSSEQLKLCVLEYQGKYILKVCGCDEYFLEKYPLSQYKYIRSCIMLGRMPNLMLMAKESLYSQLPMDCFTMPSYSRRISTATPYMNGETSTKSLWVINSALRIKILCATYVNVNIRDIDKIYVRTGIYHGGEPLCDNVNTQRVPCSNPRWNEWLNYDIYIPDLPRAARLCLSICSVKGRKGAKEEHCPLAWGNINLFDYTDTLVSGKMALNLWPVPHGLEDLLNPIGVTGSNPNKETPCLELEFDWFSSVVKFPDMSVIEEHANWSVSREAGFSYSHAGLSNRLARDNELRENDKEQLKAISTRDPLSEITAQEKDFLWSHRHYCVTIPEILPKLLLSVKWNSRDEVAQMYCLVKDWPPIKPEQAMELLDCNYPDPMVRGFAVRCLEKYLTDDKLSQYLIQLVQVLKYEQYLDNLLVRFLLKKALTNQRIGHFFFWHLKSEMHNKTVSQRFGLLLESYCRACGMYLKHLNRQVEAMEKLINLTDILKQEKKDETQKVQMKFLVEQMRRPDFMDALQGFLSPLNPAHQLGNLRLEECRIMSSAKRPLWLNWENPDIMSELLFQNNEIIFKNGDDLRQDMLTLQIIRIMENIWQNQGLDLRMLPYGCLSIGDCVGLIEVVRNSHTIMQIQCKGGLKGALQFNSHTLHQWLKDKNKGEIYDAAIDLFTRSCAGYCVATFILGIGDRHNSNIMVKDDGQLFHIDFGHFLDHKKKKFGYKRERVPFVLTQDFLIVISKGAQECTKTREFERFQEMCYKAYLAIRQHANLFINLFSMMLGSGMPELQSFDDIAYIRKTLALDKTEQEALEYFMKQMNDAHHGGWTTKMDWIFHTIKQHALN
# cGMP-dependent protein kinase 1 (Homo sapiens), sequence (Q13976 whole entry): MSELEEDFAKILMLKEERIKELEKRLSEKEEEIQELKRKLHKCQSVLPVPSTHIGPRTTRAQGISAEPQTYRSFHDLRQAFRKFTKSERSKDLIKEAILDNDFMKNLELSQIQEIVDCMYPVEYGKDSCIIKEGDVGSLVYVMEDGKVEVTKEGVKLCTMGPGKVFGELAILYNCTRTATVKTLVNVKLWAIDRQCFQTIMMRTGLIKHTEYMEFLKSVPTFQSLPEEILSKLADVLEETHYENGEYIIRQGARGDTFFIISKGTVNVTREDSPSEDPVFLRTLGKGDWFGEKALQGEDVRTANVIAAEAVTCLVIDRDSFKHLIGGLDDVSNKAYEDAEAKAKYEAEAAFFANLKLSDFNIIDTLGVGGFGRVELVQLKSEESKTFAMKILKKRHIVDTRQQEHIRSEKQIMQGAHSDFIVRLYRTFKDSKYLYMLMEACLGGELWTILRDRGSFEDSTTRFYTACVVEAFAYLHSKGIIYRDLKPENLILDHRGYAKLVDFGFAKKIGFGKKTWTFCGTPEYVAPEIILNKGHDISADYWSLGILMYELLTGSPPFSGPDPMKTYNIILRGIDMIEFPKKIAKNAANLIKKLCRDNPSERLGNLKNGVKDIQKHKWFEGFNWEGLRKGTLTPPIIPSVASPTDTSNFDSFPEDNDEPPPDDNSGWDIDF
compound,measurement,setting,value
CO[C@@H](C)c1c(Nc2ccc([C@@H](N(C)C(=O)C3CCS(=O)(=O)CC3)C(F)(F)F)cc2)cnc2cc(Cl)nn12 [NVS-MALT1-C],residual activity,[1],100%
same,residual activity,[2],99%
same,residual activity,[3],88%
same,residual activity,[4],95%
same,residual activity,[5],99%
same,residual activity,[6],29%
same,residual activity,[7],91%
same,residual activity,[8],82%
same,residual activity,[9],100%
same,residual activity,[10],100%
same,residual activity,[11],100%
same,residual activity,[12],74%
same,residual activity,[13],100%
same,residual activity,[14],100%
same,residual activity,[15],100%
same,residual activity,[16],100%
same,residual activity,[17],100%
same,residual activity,[18],84%
same,residual activity,[19],84%
same,residual activity,[20],77%
same,residual activity,[21],87%
same,residual activity,[22],77%
same,residual activity,[23],100%
same,residual activity,[24],65%
same,residual activity,[25],95%
same,residual activity,[26],88%
same,residual activity,[27],75%
same,residual activity,[28],100%
same,residual activity,[29],92%
same,residual activity,[30],100%
same,residual activity,[31],100%
same,residual activity,[32],73%
same,residual activity,[33],92%
same,inhibition,[34],12.9%
same,residual activity,[35],100%
same,residual activity,[36],84%
same,residual activity,[37],86%
same,residual activity,[38],84%
same,residual activity,[39],100%
same,residual activity,[40],91%
same,inhibition,[41],4.93%
same,residual activity,[42],100%
same,residual activity,[43],100%
same,residual activity,[44],85%
same,residual activity,[45],100%
CO[C@@H](C)c1c(Nc2ccc([C@H](N(C)C(=O)C3CCS(=O)(=O)CC3)C(F)(F)F)cc2)cnc2cc(Cl)nn12 [NVS-MALT1],residual activity,[1],100%
same,residual activity,[2],99%
same,residual activity,[3],100%
same,residual activity,[4],100%
same,residual activity,[5],100%
same,residual activity,[6],43%
same,residual activity,[7],89%
same,residual activity,[8],81%
same,residual activity,[9],100%
same,residual activity,[10],100%
same,residual activity,[11],100%
same,residual activity,[12],57%
same,residual activity,[13],100%
same,residual activity,[14],100%
same,residual activity,[15],100%
same,residual activity,[16],85%
same,residual activity,[17],100%
same,residual activity,[18],86%
same,residual activity,[19],89%
same,residual activity,[20],65%
same,residual activity,[21],87%
same,residual activity,[22],91%
same,residual activity,[23],100%
same,residual activity,[24],100%
same,residual activity,[25],94%
same,residual activity,[26],88%
same,residual activity,[27],75%
same,residual activity,[28],100%
same,residual activity,[29],84%
same,residual activity,[30],100%
same,residual activity,[31],100%
same,residual activity,[32],73%
same,residual activity,[33],85%
same,inhibition,[34],15.4%
same,residual activity,[35],100%
same,residual activity,[36],85%
same,residual activity,[37],68%
same,residual activity,[38],87%
same,residual activity,[39],100%
same,residual activity,[40],100%
same,inhibition,[41],2.45%
same,residual activity,[42],100%
same,residual activity,[43],100%
same,residual activity,[44],100%
same,residual activity,[45],100%
